The source of these data is ChEMBL document CHEMBL4342527, “Discovery of Novel Fungal Lanosterol 14α-Demethylase (CYP51)/Histone Deacetylase Dual Inhibitors to Treat Azole-Resistant Candidiasis” (J Med Chem, 2020).

Converted amounts (≈) assume the structure as drawn. The source made the active and inactive calls. The calls are words filed in the database; no cut-off is given here.

One series has as its system Candida tropicalis. The experiment in a line: Antifungal activity against azole-resistant Candida tropicalis 5008 after 48 hrs by spectrophotometry-based serial microdilution method. In kind it is functional. Particulars: Candida tropicalis, 5008, 48 h.
The subject of series [1] is Candida albicans. Description: Antifungal activity against azole-sensitive Candida albicans SC5314 after 48 hrs by spectrophotometry-based serial microdilution method. In kind it is functional. Particulars: Candida albicans, SC5314, 48 h; read-out: MIC80.
In the next series the test system is Cryptococcus neoformans. Description: Antifungal activity against azole-sensitive Cryptococcus neoformans H99 after 72 hrs by spectrophotometry-based serial microdilution method. The conditions noted are these: Cryptococcus neoformans, var grubii H99 , 72 h; read-out: MIC80. The class given is functional, var grubii H99.
The test system of series [2] is Candida albicans. The experiment in a line: Antifungal activity against azole-resistant Candida albicans 7781 after 48 hrs by spectrophotometry-based serial microdilution method. In kind it is functional. The conditions noted are these: Candida albicans, 7781, 48 h.
Series [3] concerns Candida albicans. Description: Antifungal activity against azole-resistant Candida albicans 0304103 after 48 hrs by spectrophotometry-based serial microdilution method. The class given is functional. Particulars: Candida albicans, 0304103, 48 h.
In series [4] the test system is Candida albicans. The experiment in a line: Antifungal activity against azole-resistant Candida albicans 4108 after 48 hrs by spectrophotometry-based serial microdilution method. The conditions noted are these: Candida albicans, 4108, 48 h. The class given is functional.
Series [5] relates to Candida albicans. Description: Antifungal activity against Candida albicans 0304103 assessed as effect on filamentation up to 32 ug/ml after 4 hrs by differential interference contrast microscopic analysis. In kind it is functional, organism-based.
Series [6] deals with T1, Lanosterol 14-alpha demethylase (Candida albicans (strain SC5314 / ATCC MYA-2876) (Yeast), UniProt P10613). The experiment in a line: Inhibition of CYP51 in azole-resistant Candida albicans 0304103 assessed as reduction in ERG11 gene expression at 32 ug/ml after 16 hrs by SYBR Green-1 dye based RT-PCR analysis. The arrangement: species or system 304103.
Series [7] has as its target T1, Lanosterol 14-alpha demethylase. Description: Inhibition of CYP51 in azole-resistant Candida albicans 0304103 assessed as unknown sterol 2 level at 0.5 ug/ml after 24 hrs by GC-MS analysis (reference value: 6.77%). The arrangement: scale not given: the % may be the effect or the level left.
Series [8] has as its system Candida albicans. The experiment in a line: Inhibition of biofilm formation in azole resistant Candida albicans 0304103 at 64 ug/ml after 24 hrs by XTT assay relative to control. In kind it is functional. The conditions noted are these: Candida albicans, 0304103, 24 h.
The subject of series [9] is Candida albicans. The conditions noted are these: 0304103, 32 ug/ml.
Description: Inhibition of HDAC in azole-resistant Candida albicans 0304103 assessed as decrease in rhodamine 6G efflux at 32 ug/ml after 16 hrs by fluorimetry
Series [10] has as its system Candida albicans. Description: Inhibition of HDAC in azole-resistant Candida albicans 0304103 assessed as reduction in CDR2 gene expression at 32 ug/ml after 16 hrs by SYBR Green-1 dye based RT-PCR analysis. Particulars: 304103.
For series [11], the system named is Candida albicans. Description: Inhibition of HDAC in azole-resistant Candida albicans 0304103 assessed as reduction in CDR1 gene expression at 32 ug/ml after 16 hrs by SYBR Green-1 dye based RT-PCR analysis. Particulars: 304103.
Series [12] deals with T1, Lanosterol 14-alpha demethylase. Description: Inhibition of CYP51 in azole-resistant Candida albicans 0304103 assessed as unknown sterol 1 level at 0.5 ug/ml after 24 hrs by GC-MS analysis (reference value: 2.91%). More on the design: scale not given: the % may be the effect or the level left.
The target is the same in series [13]. The experiment in a line: Inhibition of CYP51 in azole-resistant Candida albicans 0304103 assessed as lanosterol level at 0.5 ug/ml after 24 hrs by GC-MS analysis (reference value: 4.15%). More on the design: scale not given: the % may be the effect or the level left.
Series [14] has the same target. Description: Inhibition of CYP51 in azole-resistant Candida albicans 0304103 assessed as unknown sterol 3 level at 0.5 ug/ml after 24 hrs by GC-MS analysis (reference value: 4.78%). More on the design: scale not given: the % may be the effect or the level left.
For series [15] the target is unchanged. Description: Inhibition of CYP51 in azole-resistant Candida albicans 0304103 assessed as ergosterol content at 0.5 ug/ml after 24 hrs by GC-MS analysis (reference value: 75.21%). The arrangement: scale not given: the % may be the effect or the level left.
The target of another series is Histone deacetylase. Description: Inhibition of HDAC in HUVEC using Boc-Lys(Ac)-AMC as substrate preincubated for 12 hrs followed by substrate addition and measured after 4 hrs by fluorimetry. In kind it is ADME, cell-based, Homo sapiens.
Series [16] deals with T1, Lanosterol 14-alpha demethylase. The experiment in a line: Inhibition of CYP51 in azole-resistant Candida albicans 0304103 assessed as unknown sterol 4 level at 0.5 ug/ml after 24 hrs by GC-MS analysis (reference value: 1.29%). More on the design: scale not given: the % may be the effect or the level left.
The subject of series [17] is Candida albicans. Description: Inhibition of HDAC in azole-resistant Candida albicans 0304103 assessed as reduction in MDR1 gene expression at 32 ug/ml after 16 hrs by SYBR Green-1 dye based RT-PCR analysis. The conditions noted are these: 304103.
The target in series [18] is T1, Lanosterol 14-alpha demethylase. Description: Inhibition of CYP51 in azole-resistant Candida albicans 0304103 assessed as unknown sterol 5 level at 0.5 ug/ml after 24 hrs by GC-MS analysis (reference value: 4.87%). The arrangement: scale not given: the % may be the effect or the level left.

T1 sequence (P10613 whole entry): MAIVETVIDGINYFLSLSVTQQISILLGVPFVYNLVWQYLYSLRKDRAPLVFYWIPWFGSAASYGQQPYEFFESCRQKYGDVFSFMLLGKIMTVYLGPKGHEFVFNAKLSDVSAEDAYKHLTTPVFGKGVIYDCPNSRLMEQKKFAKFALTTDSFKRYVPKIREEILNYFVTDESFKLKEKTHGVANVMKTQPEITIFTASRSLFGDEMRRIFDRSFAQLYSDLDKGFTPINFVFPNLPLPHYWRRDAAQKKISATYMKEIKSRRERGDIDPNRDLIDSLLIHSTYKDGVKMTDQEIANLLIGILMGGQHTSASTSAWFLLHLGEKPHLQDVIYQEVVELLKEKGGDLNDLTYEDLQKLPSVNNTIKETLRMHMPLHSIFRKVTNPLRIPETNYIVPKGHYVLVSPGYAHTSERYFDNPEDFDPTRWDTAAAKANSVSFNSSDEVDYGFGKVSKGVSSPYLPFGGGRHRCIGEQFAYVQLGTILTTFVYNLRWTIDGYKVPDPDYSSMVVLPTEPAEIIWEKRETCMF

Consider `O=C(Cc1ccc(OCCCOc2ccc(CN(CC(O)(Cn3cncn3)c3ccc(F)cc3F)C3CC3)cc2)cc1)NO` (racemic), for which the MIC80 against Candida tropicalis was 16 µg/mL (≈ 26.3 µM); in the series with Candida albicans [1] it was 8 µg/mL (≈ 13.2 µM); in the series on Cryptococcus neoformans, 4 µg/mL (≈ 6.58 µM); against Candida albicans [2], 4 µg/mL (≈ 6.58 µM); in the series with Candida albicans [3] it was 8 µg/mL (≈ 13.2 µM); against Candida albicans [4] it was 32 µg/mL (≈ 52.7 µM).
For `CC(C)N(Cc1ccc(OCCCOc2ccc(CC(=O)NO)cc2)cc1)CC(O)(Cn1cncn1)c1ccc(F)cc1F` (racemic), the MIC80 against Candida tropicalis amounted to 4 µg/mL (≈ 6.56 µM); with Candida albicans [1], 2 µg/mL (≈ 3.28 µM); in the series on Cryptococcus neoformans, 2 µg/mL (≈ 3.28 µM); in the series on Candida albicans [2], 2 µg/mL (≈ 3.28 µM); against Candida albicans [3], 2 µg/mL (≈ 3.28 µM); against Candida albicans [4], 4 µg/mL (≈ 6.56 µM).
As for `OC(Cn1cncn1)(Cn1cncn1)c1ccc(F)cc1F` [FLUCONAZOLE], the outcome with Candida albicans [5] was inactive. Besides, the MIC80 is > 64 µg/mL against Candida tropicalis; 0.5 µg/mL (≈ 1.63 µM) in the series with Candida albicans [1]; 2 µg/mL (≈ 6.53 µM) in the series on Cryptococcus neoformans; > 64 µg/mL with Candida albicans [2]; > 64 µg/mL with Candida albicans [3]; > 64 µg/mL against Candida albicans [4]. Besides, in series [6], the “inhibition (INH)” value was “Not Active”. Also, the Activity is 7.5% in series [7]; 3.06% in series [12]; 3.94% in [13]; 4.7% in series [14]; 74.97% in series [15]; 1.17% in [16]. For the same compound, the Activity in series [18] is 4.66%. For the same compound, in the series with Candida albicans [8], the inhibition at 64 µg/mL is 22.9%. Further, the inhibition result in the series on Candida albicans [9], in the series on Candida albicans [10], with Candida albicans [11] and with Candida albicans [17] was “inactive” each time. At Histone deacetylase, the IC50 is > 40 µM.
`CCC(C)n1ncn(-c2ccc(N3CCN(c4ccc(OCC5COC(Cn6cncn6)(c6ccc(Cl)cc6Cl)O5)cc4)CC3)cc2)c1=O` (stereo not given) [ITRACONAZOLE]: the MIC80 against Candida tropicalis is > 64 µg/mL; with Candida albicans [1], 0.5 µg/mL (≈ 0.709 µM); in the series on Cryptococcus neoformans it was 0.125 µg/mL (≈ 0.177 µM); against Candida albicans [2] it was > 64 µg/mL; in the series on Candida albicans [3], > 64 µg/mL; in the series with Candida albicans [4], > 64 µg/mL.
On to `C[C@@H](c1ncncc1F)[C@](O)(Cn1cncn1)c1ccc(F)cc1F` [VORICONAZOLE], for which the MIC80 against Candida tropicalis was > 64 µg/mL; in the series on Candida albicans [1], 0.125 µg/mL (≈ 0.358 µM); with Cryptococcus neoformans it was 0.0625 µg/mL (≈ 0.179 µM); in the series with Candida albicans [2] it was > 64 µg/mL; against Candida albicans [3], > 64 µg/mL; in the series on Candida albicans [4], > 64 µg/mL.
